Assay results reported in paper PMC11524583, “Neurons enhance blood–brain barrier function via upregulating claudin-5 and VE-cadherin expression due to glial cell line-derived neurotrophic factor secretion” (eLife, 2024).
Values joined by “and” are separate entries in the source; they are usually repeats but may differ in a detail not shown here. Equal entries are not always repeated. Where two headings read alike, the source gives them in different places. Marks after values point to notes of the source that are not given here. Each block holds one molecule with its values, some of them ahead of it.

Assays:
[1] = test system: hCMEC/D3 mono-culture BBB model; assay: TEER of hCMEC/D3 mono-culture BBB model; type: cell-based, Homo sapiens; conditions: hCMEC/D3 mono-culture, 200 pg/ml GDNF, day 6; 3 μM SPP-86 or 5 μM PP2
[2] = test system: triple co-culture BBB model (hCMEC/D3, U251 and SH-SY5Y cells); assay: TEER of triple co-culture BBB model; type: cell-based, Homo sapiens; conditions: for TEER: Triple+PP2, single replicates, Figure 2S
Method: The establishment process of the triple co-culture model is illustrated in Figure 9. SH-SY5Y cells were seeded at a density of 4.5 × 10^4 cells/cm^2 in plates and differentiated with 10 μM retinoic acid (Sigma-Aldrich, St. Louis, MO, USA) for 72 hr. The differentiated SH-SY5Y cells were cultured in the fresh DMEM/F12 medium containing 10% FBS. U251 cells were seeded at 2 × 10^4 cells/cm^2 on the bottom of Transwell inserts (PET, 0.4 µm pore size, SPL Life Sciences, Pocheon, Korea) coated with rat-tail collagen (Corning Inc, Corning, NY, USA). Next, the inserts were suspended in plate wells containing the culture medium after 5 hr of incubation. After 24 hr of incubation, hCMEC/D3 cells were seeded on the apical side of the inserts at 3 × 10^4 cells/cm^2 and cultured for another 48 hr. Then, the inserts seeded with U251 and hCMEC/D3 cells were suspended in plates seeded with differentiated SH-SY5Y cells and co-cultured for another 6 days. The culture medium was replaced every 24 hr. TEER was periodically measured using a Millicell-ERS (MERS00002) instrument (Millipore, Billerica MA, USA) to monitor cell confluence and development of TJs.

claudin-5 = assay: Western blot of claudin-5 expression in hCMEC/D3 cells; type: cell-based, Homo sapiens; conditions: for GDNF-induced claudin-5 expression: 200 pg/ml GDNF, 3 μM SPP-86, 5 μM PP2, 3 μM LY294002, 2 μM U0126, 5 μM SP600125, 2 μM SB203580; for Claudin-5/β-actin Relative Expression, Mean / Claudin-5/β-actin Relative Expression: Figure 2G; for Claudin-5/β-actin Relative Expression, Mean: Con = 1.000; for Claudin-5/β-actin Relative Expression: relative to Con, single replicates
Method: (§1) Whole-cell and tissue lysates, nucleoprotein, and cytoplasmic protein were prepared using RIPA Lysis Buffer (Beyotime, Shanghai, China) as the described method ([Wu et al., 2021]). Proteins were separated through sodium dodecyl sulfate–polyacrylamide gel electrophoresis and transferred onto nitrocellulose or polyvinylidene difluoride membranes. The membranes were blocked with 5% skim milk and incubated with corresponding primary antibodies at 4°C overnight. After being washed with Tris-buffered saline Tween buffer, the membranes were incubated with secondary antibodies (Cell Signaling Technology, MA, USA) at 1:3000 dilution: Anti-mouse IgG, HRP-linked Antibody (#7076), Anti-rabbit IgG, HRP-linked Antibody (#7074). Protein levels were visualized using a highly sensitive ECL western blotting substrate and a gel imaging system (Tanon Science & Technology, Shanghai, China).
(§2) CM of U251 cells (U-CM), SH-SY5Y cells (S-CM), or co-culture of U251 and SH-SY5Y cells (US-CM) was prepared. U251 cells were seeded at the top of the insert membrane and suspended on 6-well plates seeded with differentiated SH-SY5Y cells to co-culture U251 cells with SH-SY5Y cells. The medium was collected every 24 hr. The CMs were subsequently used for hCMEC/D3 cell culture after filtrating with 0.2 μm filters for 144 hr. The levels of GDNF, bFGF, IGF-1, and TGF-β in CMs were measured using corresponding ELISA kits according to the manufacturers’ instructions.
(§3) Exogenous and endogenous GDNF in the medium was neutralized with anti-GDNF antibody (#AF-212-NA, R&D system, Minneapolis, MN, USA). 0.25, 0.5, and 1.0 μg/ml anti-GDNF antibody was added into the US-CM or medium containing 200 pg/ml GDNF, and then the medium was preincubated at 4°C for 1 hr. The hCMEC/D3 cells were incubated with 200 pg/ml GDNF or US-CM containing anti-GDNF antibody or not for 6 days, and then cell lysate was collected for western blot. The medium was replaced every 24 hr.
(§4) Here, hCMEC/D3 cells were plated in the plates or culture dishes at 6 × 10^4 cells/cm^2 and transfected with 10 nM of negative control or human FOXO1, ETS1, and CDH5 siRNA (Tsingke Biotechnology, Beijing, China) for 12 hr using Lipofectamine 3000 (Invitrogen, Carlsbad, CA, USA) reagent according to the manufacturer’s instructions. Cells were then incubated with a medium containing GDNF for 72 hr.
The plasmids encoding FOXO1 (EX-Z7404-M02) were constructed by GeneCopoeia (Rockville, MD, USA). The hCMEC/D3 cells were plated in plates or dishes at 6 × 10^4 cells/cm^2. They were subsequently transfected with 1 µg of negative control or plasmids encoding FOXO1 6 hr using Lipofectamine 3000 reagent according to the manufacturer’s instructions. Transfected cells were then incubated with the medium containing GDNF for 72 hr.

VE-cadherin = assay: Western blot of VE-cadherin expression in hCMEC/D3 cells; type: cell-based, Homo sapiens; conditions: for GDNF-induced VE-cadherin expression: 200 pg/ml GDNF, 3 μM SPP-86, 5 μM PP2, 3 μM LY294002, 2 μM U0126, 5 μM SP600125, 2 μM SB203580; for VE-cadherin/β-actin Relative Expression, Mean / VE-cadherin/β-actin Relative Expression: Figure 2G; for VE-cadherin/β-actin Relative Expression, Mean: Con = 1.000; for VE-cadherin/β-actin Relative Expression: relative to Con, single replicates
Method: as §1, §2, §3, §4

[3] = test system: triple co-culture BBB model (hCMEC/D3, U251 and SH-SY5Y cells); assay: In vitro BBB permeability study (Papp), triple co-culture BBB model
[4] = test system: hCMEC/D3 mono-culture BBB model; assay: In vitro BBB permeability study (Papp), hCMEC/D3 mono-culture BBB model
in vitro = conditions: human, Papp (individual replicate)
[5] = in situ brain perfusion in rodents, published permeability multiplied by VSA 150 cm^2/g, cited from earlier work
[6] = unbound fraction in brain; ref Esaki et al., 2019; cited from earlier work
[7] = In vitro BBB permeability study (Papp), triple co-culture BBB model; conditions: human
[8] = In vitro BBB permeability study (Papp), hCMEC/D3 mono-culture BBB model; conditions: human
[9] = hCMEC/D3 cells, anti-GDNF antibody 0.25, 0.5, 1.0 μg/ml
[10] = hCMEC/D3 cells, US-CM, 3 μM SPP-86, 5 μM PP2, 3 μM LY294002, 2 μM U0126, anti-GDNF antibody 0.25, 0.5, 1.0 μg/ml

decreased permeability of fluorescein and FITC-Dex in the triple co-culture BBB model, effect of inhibitor ([3]; 3 μM SPP-86 or 5 μM PP2): completely reversed | GDNF-decreased permeability of fluorescein and FITC-Dex, effect of inhibitor ([4]; hCMEC/D3 mono-culture, 200 pg/ml GDNF, 3 μM SPP-86 or 5 μM PP2): almost abolished
Molecule: CC(C)(C)n1nc(-c2ccc(Cl)cc2)c2c(N)ncnc21 [PP2]
GDNF-increased TEER values, effect of inhibitor [1]: almost abolished | TEER ([2]; Day3): 61.05 Ω·cm2 and 61.38 Ω·cm2 and 59.07 Ω·cm2 and 63.36 Ω·cm2 | TEER ([2]; Day4): 66.66 Ω·cm2 and 65.01 Ω·cm2 and 64.68 Ω·cm2 and 62.04 Ω·cm2 | TEER ([2]; Day5): 81.51 Ω·cm2 and 78.21 Ω·cm2 and 77.88 Ω·cm2 and 76.89 Ω·cm2 | TEER ([2]; Day6): 78.21 Ω·cm2 and 80.19 Ω·cm2 and 76.23 Ω·cm2 and 79.2 Ω·cm2 | increased TEER values in the triple co-culture BBB model, effect of inhibitor ([2]; day 6, 3 μM SPP-86 or 5 μM PP2): completely reversed | GDNF-induced claudin-5 expression (claudin-5; [9]): markedly attenuated | US-CM-induced claudin-5 expression (claudin-5; [10]): markedly attenuated | GDNF-induced VE-cadherin expression (VE-cadherin; [9]): markedly attenuated | US-CM-induced VE-cadherin expression (VE-cadherin; [10]): markedly attenuated

Papp A→B at 30 min (in vitro): 4.56 ×10⁻⁶ cm/s
Molecule: COc1cc2nc(N3CCN(C(=O)c4ccco4)CC3)nc(N)c2cc1OC [Prazosin]
PSObs ([5]; ref Di Marco et al., 2019): 169.20^¶ ¶ μl/min/g

Molecule: Cc1nc2n(c(=O)c1CCN1CCC(c3noc4cc(F)ccc34)CC1)CCCC2 [Risperidone]
PSObs ([5]; ref Summerfield et al., 2007): 849.60^† μl/min/g

Molecule: C[S+]([O-])c1ccc(-c2nc(-c3ccncc3)c(-c3ccc(F)cc3)[nH]2)cc1 (stereo not drawn) [SB203580, reference compound]
GDNF-induced claudin-5 expression (claudin-5; [9]): almost no effect | GDNF-induced VE-cadherin expression (VE-cadherin; [9]): almost no effect

Molecule: Oc1c2ccccc2c2c3c(cccc13)N=N2 [SP600125, reference compound]
GDNF-induced claudin-5 expression (claudin-5; [9]): almost no effect | GDNF-induced VE-cadherin expression (VE-cadherin; [9]): almost no effect

Papp A→B at 30 min ([7]; Papp (individual replicate), Triple co-culture BBB model, single replicate values (4 per drug)): 7.48 ×10⁻⁶ cm/s | Papp A→B at 30 min ([7]; Papp, Triple, apical to basolateral, 30 min, 37°C, day 6, mean ± SEM, four biological replicates): 8.25 ± 0.36 ×10⁻⁶ cm/s | PS ([3]; Triple co-culture BBB model, PS worked out from mean Papp): 362.02 µL/min/g | Papp A→B ([3]; read-out: Papp (individual replicate), Triple co-culture BBB model, single replicate values (4 per drug)): 8.5 ×10⁻⁶ cm/s and 9.29 ×10⁻⁶ cm/s and 7.72 ×10⁻⁶ cm/s | Papp A→B at 30 min ([8]; Papp (individual replicate), Mono-culture BBB Model, single replicate values (4 per drug)): 10.3 ×10⁻⁶ cm/s | Papp A→B at 30 min ([8]; Papp, Mono, apical to basolateral, 30 min, 37°C, day 6, mean ± SEM, four biological replicates): 9.58 ± 0.28 ×10⁻⁶ cm/s | PS ([4]; Mono-culture BBB Model, PS worked out from mean Papp): 420.60 µL/min/g | PSPre, Mono ([4]; PSPre = Papp×60×VSA×1000/fu,brain, VSA 150 cm^2/g, from Papp, Mono): 420.60 µL/min/g | Papp A→B ([4]; read-out: Papp (individual replicate), Mono-culture BBB Model, single replicate values (4 per drug)): 8.74 ×10⁻⁶ cm/s and 9.52 ×10⁻⁶ cm/s and 9.75 ×10⁻⁶ cm/s
Molecule: COc1ccc(C(CN(C)C)C2(O)CCCCC2)cc1 (stereo not drawn) [Venlafaxine]
fu, brain [6]: 0.205^*

Molecule: TGF-β
Claudin-5/β-actin Relative Expression, Mean (claudin-5; 0.5 ng): 0.967 | Claudin-5/β-actin Relative Expression (claudin-5; 0.5 ng): 0.910 and 1.017 and 1.003 and 0.937 | Claudin-5/β-actin Relative Expression, Mean (claudin-5; 2 ng): 0.982 | Claudin-5/β-actin Relative Expression (claudin-5; 2 ng): 0.870 and 1.019 and 1.090 and 0.947 | Claudin-5/β-actin Relative Expression, Mean (claudin-5; 5 ng): 0.716 | Claudin-5/β-actin Relative Expression (claudin-5; 5 ng): 0.653 and 0.618 and 0.959 and 0.634 | claudin-5 expression (claudin-5; hCMEC/D3 cells, high level (5 ng/ml) of TGF-β): slightly downregulated | VE-cadherin/β-actin Relative Expression, Mean (VE-cadherin; 0.5 ng): 1.041 | VE-cadherin/β-actin Relative Expression (VE-cadherin; 0.5 ng): 1.060 and 0.953 and 1.005 and 1.147 | VE-cadherin/β-actin Relative Expression, Mean (VE-cadherin; 2 ng): 1.010 | VE-cadherin/β-actin Relative Expression (VE-cadherin; 2 ng): 0.849 and 1.087 and 1.125 and 0.979 | VE-cadherin/β-actin Relative Expression, Mean (VE-cadherin; 5 ng): 0.834 | VE-cadherin/β-actin Relative Expression (VE-cadherin; 5 ng): 0.847 and 0.832 and 0.952 and 0.705
